According to publication PMC10581193 (Microbiology Spectrum, 2023):
In brackets after ≈: the same amount, converted by molar mass.

Test system: M. tuberculosis H37Ra
Test: microbe, parasite or virus in culture
Type: cell-based, Mycobacterium tuberculosis
Details: for MIC: Mycobacterium tuberculosis, H37RA, read-out: MIC against H37Ra

Compound	MIC [µg/mL]	MIC against H37Ra
COc1c(CN2CCOc3c(C(=O)NCCO)cc(Br)cc32)ccc(F)c1F [B10, 6-bromo-4-(3,4-difluoro-2-methoxybenzyl)-N-(2-hydroxyethyl)-3,4-dihydro-2H-benzo[b][1,4]oxazine-8-carboxamide]	> 100	
COc1ncnc(Cn2ccc3c(C(=O)NCC(F)F)cc(C)cc32)c1C [A9, N-(2,2-difluoroethyl)-1-((6-methoxy-5-methylpyrimidin-4-yl)methyl)-6-methyl-1H-indole-4-carboxamide]	0.18 (≈ 0.481 µM)	
COC(=O)c1cccc(CN2CCOc3c(C(=O)NCC(F)(F)F)cc(C4CC4)cc32)c1 [B25, methyl 3-((6-cyclopropyl-8-((2,2,2-trifluoroethyl)carbamoyl)-2,3-dihydro-4H-benzo[b][1,4]oxazin-4-yl)methyl)benzoate]	> 25	
6-bromo-N-(2-hydroxyethyl)-4-((2-methoxy-5-(trifluoromethyl)pyridin-3-yl)methyl)-3,4-dihydro-2H-benzo[2, 4]oxazine-8-carboxamide [B4]		25 µg/mL
COc1ccc(F)c(F)c1Cn1ccc2c(C(=O)NCCF)cc(C)cc21 [A6]	> 6.25	
COc1c(CN2CCOc3c(C(=O)NCC(F)F)cc(Br)cc32)ccc(F)c1F [B9, 6-bromo-4-(3,4-difluoro-2-methoxybenzyl)-N-(2,2-difluoroethyl)-3,4-dihydro-2H-benzo[b][1,4]oxazine-8-carboxamide]	> 100	
COc1ccc(F)c(F)c1CN1CCOc2c(C(=O)NCC(F)F)cc(Br)cc21 [B7, 6-bromo-4-(2,3-difluoro-6-methoxybenzyl)-N-(2,2-difluoroethyl)-3,4-dihydro-2H-benzo[b][1,4]oxazine-8-carboxamide]	> 100	
COc1cc(CN2CCOc3c(C(=O)NCC(F)(F)F)cc(C4CC4)cc32)cc(OC)c1 [B23, 6-cyclopropyl-4-(3,5-dimethoxybenzyl)-N-(2,2,2-trifluoroethyl)-3,4-dihydro-2H-benzo[b][1,4]oxazine-8-carboxamide]	> 25	
Cc1nc(C)c(Cn2ccc3c(C(=O)NCC(F)F)cc(Br)cc32)nc1C [A3, 6-bromo-N-(2,2-difluoroethyl)-1-((3,5,6-trimethylpyrazin-2-yl)methyl)-1H-indole-4-carboxamide]	> 6.25	
Cc1cc(C(=O)NC2CCCC2)c2c(c1)N(Cc1nc(C)c(C)nc1C)CCO2 [B15, N-cyclopentyl-6-methyl-4-((3,5,6-trimethylpyrazin-2-yl)methyl)-3,4-dihydro-2H-benzo[b][1,4]oxazine-8-carboxamide]	1.56 (≈ 3.95 µM)	
Cc1nc(C)c(CN2CCOc3c(C(=O)N[C@H](C)C(F)(F)F)cc(C4CC4)cc32)nc1C [B27, (R)-6-cyclopropyl-N-(1,1,1-trifluoropropan-2-yl)-4-((3,5,6-trimethylpyrazin-2-yl)methyl)-3,4-dihydro-2H-benzo[b][1,4]oxazine-8-carboxamide]	> 25	
Cc1cc(C(=O)NCC(F)F)c2ccn(Cc3nc(C)c(C)nc3C)c2c1 [A8, N-(2,2-difluoroethyl)-6-methyl-1-((3,5,6-trimethylpyrazin-2-yl)methyl)-1H-indole-4-carboxamide]	> 6.25	
Cc1nc(C)c(CN2CCOc3c(C(=O)NCCCC(F)(F)F)cc(C4CC4)cc32)nc1C [B31, 6-cyclopropyl-N-(4,4,4-trifluorobutyl)-4-((3,5,6-trimethylpyrazin-2-yl)methyl)-3,4-dihydro-2H-benzo[b][1,4]oxazine-8-carboxamide]	> 25	
Cc1nc(C)c(CN2CCOc3c(C(=O)NCC(F)F)cc(C4CC4)cc32)nc1C [B17, 6-cyclopropyl-N-(2,2-difluoroethyl)-4-((3,5,6-trimethylpyrazin-2-yl)methyl)-3,4-dihydro-2H-benzo[b][1,4]oxazine-8-carboxamide]	0.6 (≈ 1.44 µM)	
COc1ccc(CN2CCOc3c(C(=O)NCC(F)(F)F)cc(C4CC4)cc32)cc1F [B24, 6-cyclopropyl-4-(3-fluoro-4-methoxybenzyl)-N-(2,2,2-trifluoroethyl)-3,4-dihydro-2H-benzo[b][1,4]oxazine-8-carboxamide]	> 25	
COc1ncc(C(F)(F)F)cc1Cn1ccc2c(C(=O)NCC(F)F)cc(Br)cc21 [A5, 6-bromo-N-(2,2-difluoroethyl)-1-((2-methoxy-5-(trifluoromethyl)pyridin-3-yl)methyl)-1H-indole-4-carboxamide]	> 6.25	
Cc1ccc(CN2CCOc3c(C(=O)NCC(F)(F)F)cc(C4CC4)cc32)cc1 [B21, 6-cyclopropyl-4-(4-methylbenzyl)-N-(2,2,2-trifluoroethyl)-3,4-dihydro-2H-benzo[b][1,4]oxazine-8-carboxamide]	> 25	
6-bromo-N-(2-fluoroethyl)−4-((3,5,6-trimethylpyrazin-2-yl)methyl)−3,4-dihydro-2H-benzo[2, 4]oxazine-8-carboxamide [B1]		6.25 µg/mL
Cc1cc(C(=O)NCCO)c2c(c1)N(Cc1nc(C)c(C)nc1C)CCO2 [B13, N-(2-hydroxyethyl)-6-methyl-4-((3,5,6-trimethylpyrazin-2-yl)methyl)-3,4-dihydro-2H-benzo[b][1,4]oxazine-8-carboxamide]	> 100	≥ 100
COc1ccc(F)c(F)c1Cn1ccc2c(C(=O)NCC(F)F)cc(Br)cc21 [A2, 6-bromo-1-(2,3-difluoro-6-methoxybenzyl)-N-(2,2-difluoroethyl)-1H-indole-4-carboxamide]	> 6.25	

Compound	MIC [µg/mL]	MIC against H37Ra
Cc1nc(C)c(CN2CCOc3c(C(=O)NCC(F)F)cc(Br)cc32)nc1C [B2]	0.39 (≈ 0.857 µM)	0.39
Cc1nc(C)c(CN2CCOc3c(C(=O)NCC(F)(F)F)cc(-c4ccccc4)cc32)nc1C [B33]	> 25	
COc1ncc(C(F)(F)F)cc1Cn1ccc2c(C(=O)NCC(F)F)cc(C)cc21 [A10, N-(2,2-difluoroethyl)-1-((2-methoxy-5-(trifluoromethyl)pyridin-3-yl)methyl)-6-methyl-1H-indole-4-carboxamide]	> 6.25	
COc1ccc(F)c(F)c1CN1CCOc2c(C(=O)NCCF)cc(Br)cc21 [B6, 6-bromo-4-(2,3-difluoro-6-methoxybenzyl)-N-(2-fluoroethyl)-3,4-dihydro-2H-benzo[b][1,4]oxazine-8-carboxamide]	> 100	
COc1ccc(F)c(F)c1Cn1ccc2c(C(=O)NCCF)cc(Br)cc21 [A1]	> 6.25	
Cc1cc(C)cc(CN2CCOc3c(C(=O)NCC(F)(F)F)cc(C4CC4)cc32)c1 [B22, 6-cyclopropyl-4-(3,5-dimethylbenzyl)-N-(2,2,2-trifluoroethyl)-3,4-dihydro-2H-benzo[b][1,4]oxazine-8-carboxamide]	> 25	
Cc1cc(C(=O)NCC(F)F)c2c(c1)N(Cc1nc(C)c(C)nc1C)CCO2 [B11, N-(2,2-difluoroethyl)-6-methyl-4-((3,5,6-trimethylpyrazin-2-yl)methyl)-3,4-dihydro-2H-benzo[b][1,4]oxazine-8-carboxamide]	0.18 (≈ 0.461 µM)	
COc1ccc(F)c(F)c1CN1CCOc2c(C(=O)NCCO)cc(Br)cc21 [B8, 6-bromo-4-(2,3-difluoro-6-methoxybenzyl)-N-(2-hydroxyethyl)-3,4-dihydro-2H-benzo[b][1,4]oxazine-8-carboxamide]	> 100	
Cc1nc(C)c(CN2CCOc3c(C(=O)NCC(C)(F)F)cc(C4CC4)cc32)nc1C [B29, 6-cyclopropyl-N-(2,2-difluoropropyl)-4-((3,5,6-trimethylpyrazin-2-yl)methyl)-3,4-dihydro-2H-benzo[b][1,4]oxazine-8-carboxamide]	> 25	
6-bromo-N-(2-fluoroethyl)-4-((2-methoxy-5-(trifluoromethyl)pyridin-3-yl)methyl)-3,4-dihydro-2H-benzo[2, 4]oxazine-8-carboxamide [B3]		1.56 µg/mL
O=C(NCC(F)(F)F)c1cc(C2CC2)cc2c1OCCN2Cc1ccc2ccccc2c1 [B20, 6-cyclopropyl-4-(naphthalen-2-ylmethyl)-N-(2,2,2-trifluoroethyl)-3,4-dihydro-2H-benzo[b][1,4]oxazine-8-carboxamide]	> 25	
Cc1nc(C)c(CN2CCOc3c(C(=O)NCCC(F)(F)F)cc(C4CC4)cc32)nc1C [B28, 6-cyclopropyl-N-(3,3,3-trifluoropropyl)-4-((3,5,6-trimethylpyrazin-2-yl)methyl)-3,4-dihydro-2H-benzo[b][1,4]oxazine-8-carboxamide]	> 25	
Cc1cc(C(=O)NC2CCCCC2)c2c(c1)N(Cc1nc(C)c(C)nc1C)CCO2 [B16, N-cyclohexyl-6-methyl-4-((3,5,6-trimethylpyrazin-2-yl)methyl)-3,4-dihydro-2H-benzo[b][1,4]oxazine-8-carboxamide]	< 0.78	
6-bromo-N-(2,2-difluoroethyl)-4-((2-methoxy-5-(trifluoromethyl)pyridin-3-yl)methyl)-3,4-dihydro-2H-benzo[b][1,4]oxazine-8-carboxamide [B5]		> 25 µg/mL
Cc1nc(C)c(CN2CCOc3c(C(=O)NCC(F)(F)CO)cc(C4CC4)cc32)nc1C [B30, 6-cyclopropyl-N-(2,2-difluoro-3-hydroxypropyl)-4-((3,5,6-trimethylpyrazin-2-yl)methyl)-3,4-dihydro-2H-benzo[b][1,4]oxazine-8-carboxamide]	> 25	
Cc1cc(C(=O)NC2CC2)c2c(c1)N(Cc1nc(C)c(C)nc1C)CCO2 [B14, N-cyclopropyl-6-methyl-4-((3,5,6-trimethylpyrazin-2-yl)methyl)-3,4-dihydro-2H-benzo[b][1,4]oxazine-8-carboxamide]	50 (≈ 136 µM)	
Cc1cc(C(=O)NCC(F)(F)F)c2c(c1)N(Cc1nc(C)c(C)nc1C)CCO2 [B12, 6-methyl-N-(2,2,2-trifluoroethyl)-4-((3,5,6-trimethylpyrazin-2-yl)methyl)-3,4-dihydro-2H-benzo[b][1,4]oxazine-8-carboxamide]	100 (≈ 245 µM)	≥ 100
COc1ncnc(Cn2ccc3c(C(=O)NCC(F)F)cc(Br)cc32)c1C [A4, 6-bromo-N-(2,2-difluoroethyl)-1-((6-methoxy-5-methylpyrimidin-4-yl)methyl)-1H-indole-4-carboxamide]	0.5 (≈ 1.14 µM)	0.5
Cc1nc(C)c(CN2CCOc3c(C(=O)NCCO)cc(C4CC4)cc32)nc1C [B19, 6-cyclopropyl-N-(2-hydroxyethyl)-4-((3,5,6-trimethylpyrazin-2-yl)methyl)-3,4-dihydro-2H-benzo[b][1,4]oxazine-8-carboxamide]	> 100	
